Tests used:
[1] = Serum binding determination by ultrafiltration and HPLC; type: in vitro ADME; conditions: human, serum, % of compound bound to serum as determined by HPLC
Experimental: The more accurate measurement of binding of selected cephalosporin compounds was performed using HPLC as described below. […] Serum is placed in a shaking water bath preheated to 37 ± 2 °C for 5 to 10 minutes to heat serum to 37 °C. Serum pH is measured and recorded, while serum is 37 °C using pH paper. Measurements are taken twice, 3 minutes apart. […] After blowing for several minutes, serum is heated to 37 °C and measurements are taken twice, 3 minutes apart using pH paper to determine the pH. Store at 4 °C. The serum is stable for 7 days. Always check the pH before each use. • 2. Before any centrifugation, the centrifuge temperature must be adjusted to 25 ± 2 °C. Preheat the centrifuge by spinning for 45 minutes at the same speed to be used in the assay (1900 g) with two tubes of water in the rotor and the temperature set to 25 °C. When the centrifuge stops immediately check the temperature of the tubes of water with a calibrated thermometer. The temperature of the tubes of water must be 25 ± 2 °C. […] Continue spinning and measuring the temperature and adjusting the setting until the temperature is 25 ± 2 °C. • 3. Prepare blank ultrafiltrate by pipetting blank pH 7.4 serum into an Amicon Centrifree Micropartition devices, centrifuge: fixed angle rotor, 1900 g, 25 °C for 20 minutes. Heat ultrafiltrate in a shaking water bath preheated to 37 °C. Measure ultrafiltrate pH and adjust to the pH of the serum (7.4 ± 0.2). • 4. Pipette 190 ul of blank ultrafiltrate into a set of labeled 1.7 mL polypropylene microfuge tubes for 3 of each level. Pipette 10 µL of the appropriate standard stock 50, 200, 1000 µg/mL to make standards 2.5, 10, and 50 µg/mL respectively. Vortex each tube well. One set of the standard samples are mixed 1:1 with 0.2 M acetic acid and injected onto the HPLC (MSTD). These samples are the membrane standards and will be used to compare to the other standards. Pipette 190 ul of ultrafiltrate and spike with 10 ul of whatever solution (e.g. water) the standards are prepared in to make the zero standard. • 5. Pipette 475 µL of blank heated pH 7.4 serum into a set of labeled 1.7 mL polypropylene microfuge tubes for 2 of each (Serum A and Serum B). Pipette 25 µL of the 1000 µg/mL standard stock into each tube, vortex each tube well to make serum standard 50 µg/mL. Remove 100 µL of serum and deproteinate with 200 µL 4% TCA while vortexing to make serum time 0 (serum 50, T0). Place serum tubes in a shaking water bath at 37 °C for 10 minutes. Pipet 100 µL of serum out and deproteinate with 200 µL 4% TCA, to make serum time 10 min (serum 50, T10). Pipet 200 ul serum standard 50 µg/mL into an ultrafiltration device, which is not treated with TCA, to determine free drug in samples (Rat Serum 50). • 6. Transfer serum and standard samples to labeled Amicon Centrifree Micropartition filters, and centrifuge: 1900 g, 25 °C for 10 minutes. The extracted serum samples (T0 and T 10) are spun down and supernatant is loaded into HPLC vials. • 7. 100 µL of ultrafiltrate sample and 100 µL of 0.2 M acetic acid were mixed together to stabilize the compound in ultrafiltrate. • 8. Transfer entire stabilized ultrafiltrate solution to a labeled autoinjector HPLC vial cap with Teflon septa, and inject on HPLC.
Peak height or area is used in a weighted linear regression.
High levels of binding to human serum proteins limits the concentration of compound available for antibacterial activity in the body.

[2] = In vitro stability of compounds in rat serum; type: in vitro ADME; conditions: for degraded at 1 h: % loss after 60 min exposure to rat serum as determined by HPLC, 37 °C; for stability in rat serum (statement in words): compared with other 7-acylamino-3-heteroarylthio-3-cephem carboxylic acids
Experimental: In general, compounds from the class of 7-acylamino-3-heteroarylthio-3-cephem carboxylic acids have higher chemical reactivity and lower stability towards chemical or enzymatic decomposition than most typical cephalosporins. […] Results shown in Table 2 represent percentage loss of the initial amount of cephalosporin compound upon 60 min incubation in rat serum.
Procedure for measuring degree of degradation of cephalosporin compounds in rat serum was as follows:
Fresh control rat serum (heparinized and stored frozen) is preincubated at 37 °C for 15 min in a shaking water bath. pH is measured using test strips. 25 µL of a 2 mg/mL solution cephalosporin compound (in water) of is then added to each matrix to make 1000 µL. Solutions were incubated at 37 °C. 100ul of solution was taken out at time = 0, 15, 30, and 60 min post dose and added 200 µL 4% trichloroacetic acid, vortexed, and centrifuged for 10 min at 14,000 rpm in an Eppendorfmicrocentrifuge. 25 µL of each supernatant was injected onto HPLC. Experiment was repeated using 25 µL of a 0.2 mg/mL cephalosporin compound. Degradation is measured as the percentage of HPLC peak area at time t relative to peak area at time 0.
HPLC conditions: Beckman Ultrasphere C18 column. 5u. 4.6mm x 25cm. 1 mL/min of 95% 0.1 M ammonium acetate, pH 6, 5% ACN going to 75% buffer/organic over 20min. UV monitored at 254 and 280 nm.

Row | Compound | fraction unbound [1] | degraded at 1 h [2] | stability in rat serum (statement in words) [2]
1 | NCCSCc1ncccc1SC1=C(C(=O)O)N2C(=O)[C@@H](NC(=O)/C(=N\O)c3nc(N)sc3Cl)[C@H]2SC1 [Cmpd 1, (7R)-7-[(Z)-2-(2-amino-5-chlorothiazol-4-yl)-2-(hydroxyimino)acetamido]-3-[2-(2-aminoethylthiomethyl)pyrid-3-ylthio]-3-cephem-4-carboxylic acid] | 0.1 | 9% | improved stability
2 | NCCSCc1ncccc1SC1=C(C(=O)O)N2C(=O)[C@@H](NC(=O)/C(=N\O)c3nsc(N)n3)[C@H]2SC1 [Cmpd 2, (7R)-7-[(Z)-2-(5-amino-1,2,4-thiadiazol-3-yl)-2-(hydroxyimino)acetamido]-3-[2-(2-aminoethylthiomethyl)pyrid-3-ylthio]-3-cephem-4-carboxylic acid] | ≥ 0.2 | 2% | improved stability
3 | N=C(N)NCCSCc1ncccc1SC1=C(C(=O)O)N2C(=O)[C@@H](NC(=O)/C(=N\O)c3nsc(N)n3)[C@H]2SC1 [Cmpd 2-R, (7R)-7-[(Z)-2-(5-amino-1,2,4-thiadiazol-3-yl)-2-(hydroxyimino)acetamido]-3-[2-(2-guanidinoethylthiomethyl)pyrid-3-ylthio]-3-cephem-4-carboxylic acid] | ≥ 0.2 | 10% | improved stability
4 | N=C(N)NCCSCc1ncccc1SC1=C(C(=O)O)N2C(=O)[C@@H](NC(=O)/C(=N\O)c3nc(N)sc3Cl)[C@H]2SC1 [Cmpd 2-S, (7R)-7-[(Z)-2-(2-amino-5-chlorothiazol-4-yl)-2-(hydroxyimino)acetamido]-3-[2-(2-guanidinoethylthiomethyl)pyrid-3-ylthio]-3-cephem-4-carboxylic acid] | 0.17 | 38% | improved stability
5 | NCCSCc1ccncc1SC1=C(C(=O)O)N2C(=O)[C@@H](NC(=O)/C(=N\O)c3nc(N)sc3Cl)[C@H]2SC1 [Cmpd 3, (7R)-7-[(Z)-2-(2-amino-5-chlorothiazol-4-yl)-2-(hydroxyimino)acetamido]-3-[4-(2-aminoethylthiomethyl)pyrid-3-ylthio]-3-cephem-4-carboxylic acid] | 0.1 | 3% | improved stability

Reference: patent EP1222194B1, “7-ACYLAMINO-3-HETEROARYLTHIO-3-CEPHEM CARBOXYLIC ACID ANTIBIOTICS AND PRODRUGS THEREOF” (priority 1999, dated 2001)
